Experimental data: paper PMC12697895, “Vinburnine Sensitizes Radiotherapy Efficacy in Nasopharyngeal Carcinoma by Triggering Pyroptosis and Immune Responses via Activation of EDAR‐NFκB Pathway” (Advanced Science, 2025)

Biological target: T1, EDAR (endogenous, SUNE1 cells) (Homo sapiens, UniProt Q9UNE0)
T1 construct: endogenous protein in SUNE1 cells, detected by Western blot
T1 sequence (Q9UNE0 27-448): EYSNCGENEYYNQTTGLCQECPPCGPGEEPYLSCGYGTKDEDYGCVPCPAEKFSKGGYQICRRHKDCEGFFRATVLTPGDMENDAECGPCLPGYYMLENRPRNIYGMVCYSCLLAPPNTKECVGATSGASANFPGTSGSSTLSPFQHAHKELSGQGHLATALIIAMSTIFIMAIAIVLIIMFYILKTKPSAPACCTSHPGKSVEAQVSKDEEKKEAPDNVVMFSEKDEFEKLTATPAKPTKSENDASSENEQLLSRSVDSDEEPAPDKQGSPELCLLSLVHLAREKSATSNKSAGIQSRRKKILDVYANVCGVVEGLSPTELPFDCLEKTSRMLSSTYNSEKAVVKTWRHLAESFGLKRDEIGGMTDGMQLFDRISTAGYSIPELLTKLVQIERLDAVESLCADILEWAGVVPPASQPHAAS
Assay: CETSA (Western blot)
Assay type: cell-based
Conditions: 10 µM vinburnine, intact SUNE1 cells, 12 h; six temperatures, 10 min

`CC[C@]12CCCN3CCc4c(n(c5ccccc45)C(=O)C1)[C@@H]32` [vinburnine] was tested, and the “CETSA (Western blot)” value was “EDAR was more stable in vinburnine‐pretreated samples than in control samples at various temperatures”.
